Experimental data as given in PMC7470127, “Design, synthesis, and evaluation of 1, 4-benzodioxan-substituted chalcones as selective and reversible inhibitors of human monoamine oxidase B” (Journal of Enzyme Inhibition and Medicinal Chemistry, 2020).

Assays:
hMAO-A = target: T1, hMAO-A (Homo sapiens, UniProt P21397); experiment: hMAO inhibition assay (Amplex Red fluorescence), hMAO-A, p-tyramine substrate; format: biochemical; details: for IC50: recombinant hMAO-A
T1 sequence (P21397 1-527): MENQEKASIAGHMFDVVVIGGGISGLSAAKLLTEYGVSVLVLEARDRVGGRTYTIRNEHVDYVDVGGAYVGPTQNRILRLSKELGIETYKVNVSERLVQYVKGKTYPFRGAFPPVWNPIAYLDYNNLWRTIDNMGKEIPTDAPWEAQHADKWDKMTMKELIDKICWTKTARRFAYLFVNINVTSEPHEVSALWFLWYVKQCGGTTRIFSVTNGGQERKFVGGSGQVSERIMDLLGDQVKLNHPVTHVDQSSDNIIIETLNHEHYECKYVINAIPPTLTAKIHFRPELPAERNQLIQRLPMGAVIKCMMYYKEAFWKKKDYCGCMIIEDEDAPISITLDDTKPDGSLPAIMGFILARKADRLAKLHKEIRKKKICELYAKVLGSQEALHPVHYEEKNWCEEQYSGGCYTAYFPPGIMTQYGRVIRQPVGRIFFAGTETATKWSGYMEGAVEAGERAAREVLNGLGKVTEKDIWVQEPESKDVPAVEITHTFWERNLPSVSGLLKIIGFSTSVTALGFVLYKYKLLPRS
Experimental: The hMAO inhibition assay was performed as previously described. Adequate amounts of recombinant hMAO-A/B were acquired and adjusted to 12.5 µg/mL or 75 µg/mL for hMAO-A or hMAO-B, respectively, with sodium phosphate buffer (50 mM, pH 7.4). The test compounds were dissolved in DMSO as stock solutions (10 mM) and diluted with sodium phosphate buffer (50 mM, pH 7.4) to the corresponding concentrations. Then the test compounds (20 µL) and hMAO (80 µL) were incubated for 15 min at 37 °C in a flat, black-bottomed 96-well microtest plate in the dark. The reaction was initiated by adding Amplex Red reagent (200 µM, final concentration), horseradish peroxidase (2 U/mL, final concentration), and 2 mM p-tyramine for hMAO-A or 2 mM benzylamine (final concetration) for hMAO-B and incubated at 37 °C for 20 min. Activity was quantified in a multi detection microplate fluorescence reader (SpectraMax M5, Molecular Devices, USA) based on the fluorescence generated (excitation, 545 nm; emission, 590 nm). The specific fluorescence emission was calculated after subtraction of the background activity. The background activity was determined from wells containing all components except the hMAO isoforms, which were replaced by a sodium phosphate buffer solution. The percentage inhibition was calculated by the following expression: (1 – IFi/IFc) × 100, in which IFi and IFc are the fluorescence intensities obtained for hMAO in the presence and absence of inhibitors after subtracting the respective background. […]

hMAO-B = target: T2, hMAO-B (Homo sapiens, UniProt P27338); experiment: hMAO inhibition assay (Amplex Red fluorescence), hMAO-B, benzylamine substrate; format: biochemical; details: for IC50: recombinant hMAO-B, read-out: hMAO-B IC50; for inhibition at 1 µM: tested concentration 1 µM; for Selectivity Index (SI): SI = IC50 (hMAO-A)/IC50 (hMAO-B); for fold higher inhibitory potency than 4: from IC50, versus compound 4
T2 sequence (P27338 1-520): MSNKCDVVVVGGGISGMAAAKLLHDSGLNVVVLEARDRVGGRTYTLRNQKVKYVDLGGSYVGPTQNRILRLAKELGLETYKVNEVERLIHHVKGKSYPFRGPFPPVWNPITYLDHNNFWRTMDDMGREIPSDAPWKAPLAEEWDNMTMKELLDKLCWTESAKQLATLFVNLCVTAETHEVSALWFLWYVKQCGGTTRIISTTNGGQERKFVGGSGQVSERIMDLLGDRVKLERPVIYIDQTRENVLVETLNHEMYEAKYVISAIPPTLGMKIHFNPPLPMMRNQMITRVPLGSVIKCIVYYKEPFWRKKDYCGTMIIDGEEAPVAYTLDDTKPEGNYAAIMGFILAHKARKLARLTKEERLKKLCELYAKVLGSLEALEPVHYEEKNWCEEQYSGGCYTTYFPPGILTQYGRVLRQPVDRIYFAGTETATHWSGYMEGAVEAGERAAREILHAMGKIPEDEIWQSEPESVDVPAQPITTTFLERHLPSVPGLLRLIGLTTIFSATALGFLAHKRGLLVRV
Experimental: The hMAO inhibition assay was performed as previously described. […] The test compounds were dissolved in DMSO as stock solutions (10 mM) and diluted with sodium phosphate buffer (50 mM, pH 7.4) to the corresponding concentrations. […] The specific fluorescence emission was calculated after subtraction of the background activity. The background activity was determined from wells containing all components except the hMAO isoforms, which were replaced by a sodium phosphate buffer solution. The percentage inhibition was calculated by the following expression: (1 – IFi/IFc) × 100, in which IFi and IFc are the fluorescence intensities obtained for hMAO in the presence and absence of inhibitors after subtracting the respective background.

| SMILES | IC50 (hMAO-A) [µM] | IC50 (hMAO-B) [nM] | inhibition at 1 µM (hMAO-B) [%] | Selectivity Index (SI) (hMAO-B) | fold higher hMAO-B inhibition than 1 (hMAO-B; from IC50, versus compound 1) [fold] | melting point [°C] | fold higher inhibitory potency than 4 (hMAO-B) | inhibition at 0.1 µM (hMAO-A; read-out: hMAO-A % inhibition) [%] |
| --- | --- | --- | --- | --- | --- | --- | --- | --- |
| O=C(C=Cc1ccccc1)c1ccccc1 [Compound 1, 1,3-diphenyl-2-propen-1-one] | > 40 | 13040 ± 60 | – | – | – | – | – | – |
| O=C(/C=C/c1ccc2ccccc2c1)c1ccccc1 [Compound 2, (E)-3-(naphthalen-2-yl)-1-phenylprop-2-en-1-one] | > 40 | – | 18.1 | – | – | – | – | – |
| O=C(/C=C/c1ccc2c(c1)OCO2)c1ccccc1 [Compound 3, (E)-3-(benzo[d][1,3]dioxol-5-yl)-1-phenylprop-2-en-1-one] | > 40 | – | 50.8 | – | – | – | – | – |
| O=C(/C=C/c1ccc2c(c1)OCCO2)c1ccccc1O [Compound 5, (E)-3-(2,3-dihydrobenzo[b][1,4]dioxin-6-yl)-1-(2-hydroxyphenyl)prop-2-en-1-one] | > 40 | 300 ± 20 | 75 | >133 | – | 120.8 to 122.3 | – | – |
| COc1ccc(C(=O)/C=C/c2ccc3c(c2)OCCO3)cc1 [Compound 8, (E)-3–(2,3-dihydrobenzo[b][1,4]dioxin-6-yl)-1-(4-methoxyphenyl)prop-2-en-1-one] | > 40 | – | 51.7 | – | – | 93.8 to 94.9 | – | – |
| O=C(/C=C/c1ccc2c(c1)OCCO2)c1ccc(O)cc1O [Compound 10, (E)-3-(2,3-dihydrobenzo[b][1,4]dioxin-6-yl)-1–(2,4-dihydroxyphenyl)prop-2-en-1-one] | > 40 | – | 69.5 | – | – | 169.5 to 170.8 | – | – |
| COc1ccc(C(=O)/C=C/c2ccc3c(c2)OCCO3)cc1OC [Compound 11, (E)-3–(2,3-dihydrobenzo[b][1,4]dioxin-6-yl)-1–(3,4-dimethoxyphenyl)prop-2-en-1-one] | > 40 | – | 22.4 | – | – | 110 to 111.1 | – | – |
| O=C(/C=C/c1ccc2c(c1)OCCO2)c1ccccc1Cl [Compound 13, (E)-1-(2-chlorophenyl)-3-(2,3-dihydrobenzo[b][1,4]dioxin-6-yl)prop-2-en-1-one] | > 40 | 54 ± 6 | 92.4 | >741 | – | 67.5 to 69.4 | 1.8–4.1 fold | – |
| O=C(/C=C/c1ccc2c(c1)OCCO2)c1ccccc1Br [Compound 14, (E)-1-(2-bromophenyl)-3-(2,3-dihydrobenzo[b][1,4]dioxin-6-yl)prop-2-en-1-one] | > 40 | 81 ± 4 | 92.6 | >494 | – | 70.3 to 72.2 | 1.8–4.1 fold | – |
| O=C(/C=C/c1ccc2c(c1)OCCO2)c1ccc(C(F)(F)F)cc1 [Compound 21, (E)-3-(2,3-dihydrobenzo[b][1,4]dioxin-6-yl)-1-(4-(trifluoromethyl)phenyl)prop-2-en-1-one] | > 40 | 230 ± 0.5 | 76.8 | >174 | – | 139 to 140.2 | – | – |
| O=C(/C=C/c1ccc2c(c1)OCCO2)c1cc(Br)ccc1O [Compound 24, (E)-1-(5-bromo-2-hydroxyphenyl)-3-(2,3-dihydrobenzo[b][1,4]dioxin-6-yl)prop-2-en-1-one] | > 40 | 250 ± 30 | 77.1 | >160 | – | 141.8 to 143.7 | – | – |
| O=C(/C=C/c1ccc2c(c1)OCO2)c1ccc(Cl)cc1 [Compound 28, (E)-3-(benzo[d][1,3]dioxol-5-yl)-1-(4-chlorophenyl)prop-2-en-1-one] | > 40 | – | 57.5 | – | – | – | – | – |
| C#CCN(C)CCCOc1ccc(Cl)cc1Cl [clorgyline, reference compound] | – | – | – | – | – | – | – | 86.6 |

The next lines start with results.

| IC50 (hMAO-A) [µM] | IC50 (hMAO-B) [nM] | inhibition at 1 µM (hMAO-B) [%] | Selectivity Index (SI) (hMAO-B) | fold higher hMAO-B inhibition than 1 (hMAO-B; from IC50, versus compound 1) [fold] | melting point [°C] | fold higher inhibitory potency than 4 (hMAO-B) | SMILES | inhibition at 0.1 µM (hMAO-A; read-out: hMAO-A % inhibition) [%] |
| --- | --- | --- | --- | --- | --- | --- | --- | --- |
| > 40 | – | 84.9 | >186 | 55 | – | – | O=C(/C=C/c1ccc2c(c1)OCCO2)c1ccccc1 [Compound 4, (E)-3-(2,3-dihydrobenzo[b][1,4]dioxin-6-yl)-1-phenylprop-2-en-1-one] | – |
| > 40 | 340 ± 10 | 78 | >118 | – | 94.4 to 95.6 | – | COc1cccc(C(=O)/C=C/c2ccc3c(c2)OCCO3)c1 [Compound 6, (E)-3-(2,3-dihydrobenzo[b][1,4]dioxin-6-yl)-1–(3-methoxyphenyl)prop-2-en-1-one] | – |
| > 40 | – | 26 | – | – | – | – | O=C(/C=C/c1ccc2c(c1)OCCO2)c1ccc(O)cc1 [Compound 7, (E)-3–(2,3-dihydrobenzo[b][1,4]dioxin-6-yl)-1-(4-hydroxyphenyl)prop-2-en-1-one] | – |
| > 40 | 150 ± 7 | 86.3 | >267 | – | 196.8 to 198.5 | – | O=C(/C=C/c1ccc2c(c1)OCCO2)c1cccc(O)c1 [Compound 9, (E)-3–(2,3-dihydrobenzo[b][1,4]dioxin-6-yl)-1-(3-hydroxyphenyl)prop-2-en-1-one] | – |
| > 40 | 120 ± 10 | 89.2 | >333 | – | 93.7 to 95.4 | 1.8–4.1 fold | O=C(/C=C/c1ccc2c(c1)OCCO2)c1ccccc1F [Compound 12, (E)-3–(2,3-dihydrobenzo[b][1,4]dioxin-6-yl)-1-(2-fluorophenyl)prop-2-en-1-one] | – |
| > 40 | 130 ± 7 | 89.2 | >308 | – | – | 1.7–4 fold | O=C(/C=C/c1ccc2c(c1)OCCO2)c1cccc(F)c1 [Compound 15, (E)-3-(2,3-dihydrobenzo[b][1,4]dioxin-6-yl)-1-(3-fluorophenyl)prop-2-en-1-one] | – |
| > 40 | – | 69.9 | – | – | – | – | O=C(/C=C/c1ccc2c(c1)OCCO2)c1ccc(Cl)cc1 [Compound 18, (E)-1–(4-chlorophenyl)-3–(2,3-dihydrobenzo[b][1,4]dioxin-6-yl)prop-2-en-1-one] | – |
| > 40 | – | 68.1 | – | – | 136.7 to 138.2 | – | O=C(/C=C/c1ccc2c(c1)OCCO2)c1ccc(Br)cc1 [Compound 19, (E)-1–(4-bromophenyl)-3–(2,3-dihydrobenzo[b][1,4]dioxin-6-yl)prop-2-en-1-one] | – |
| > 40 | 68 ± 7 | 87.5 | >588 | – | 135.5 to 136.5 | – | O=C(/C=C/c1ccc2c(c1)OCCO2)c1ccc(F)cc1 [Compound 20, (E)-3-(2,3-dihydrobenzo[b][1,4]dioxin-6-yl)-1-(4-fluorophenyl)prop-2-en-1-one] | – |
| > 40 | 170 ± 20 | 88.8 | >235 | – | 156.6 to 157.9 | – | O=C(/C=C/c1ccc2c(c1)OCCO2)c1ccc(Cl)c(Cl)c1 [Compound 23, (E)-1-(3,4-dichlorophenyl)-3–(2,3-dihydrobenzo[b][1,4]dioxin-6-yl)prop-2-en-1-one] | – |
